In patent US8841508B2, “Non-human mammalian animal model for type 2 diabetes” (National University Corporation, priority 2009, dated 2014):

What was measured:
WT mice (wild type mice) = assay: Screening simulation: fasting and glucose-tolerance blood glucose level after Exendin-4 in WT mice; assay type: in vivo, mouse; conditions: intraperitoneal, 0.1 mg per kg twice a day, after 1 week and 2 weeks, ANOVA p=0.02
Protocol: (§1) To the KO mice used for the verification of periodical changes of blood glucose level, Exendin-4 which is an agonist of a glucagon-like peptide-1 receptor known as a therapeutic agent for type 2 diabetes was intraperitoneally administrated as a test substance. A degree of type 2 diabetes was then evaluated using the KO mice to simulate the screening of the preventive or therapeutic agent for type 2 diabetes caused by the Cdkal1 abnormality.
(§2) The procedures for evaluating the degree of type 2 diabetes consists of measuring the fasting blood glucose level and glucose-tolerance blood glucose level for KO mice and WT mice, comparing the blood glucose levels for both of the mice, and evaluating them. In this test, Exendin-4 was administered twice a day for 2 weeks at a rate of 0.1 mg per kg, of body weight.

[1] = tested on: KO mice (Cdkal1 knock-out mice, type 2 diabetes model); assay: Screening simulation: fasting and glucose-tolerance blood glucose level after Exendin-4 in KO mice; assay type: in vivo, mouse; conditions: intraperitoneal, 0.1 mg per kg twice a day, after 1 week and 2 weeks, ANOVA p=0.02
Protocol: as §1, §2

## Exendin-4
WT mice (wild type mice)
  glucose tolerance (blood glucose level after glucose tolerance): significantly improved glucose tolerance
[1]
  glucose tolerance (blood glucose level after glucose tolerance): significantly improved glucose tolerance
